Earlier results as cited in US20260295002A1, “GASTROINTESTINAL RETENTIVE FORMULATIONS OF ECHINOCANDINS” (The Cleveland Clinic Foundation, priority 2023, published 2026).
Where a name gives a salt, the structure may show the parent alone.

Conditions: background statement

Row | oral bioavailability | SMILES
1 | poor oral bioavailability | CC[C@H](C)C[C@H](C)CCCCCCCCC(=O)N[C@H]1C[C@@H](O)[C@@H](NCCN)NC(=O)[C@@H]2[C@@H](O)CCN2C(=O)[C@H]([C@H](O)CCN)NC(=O)[C@H]([C@H](O)[C@@H](O)c2ccc(O)cc2)NC(=O)[C@@H]2C[C@@H](O)CN2C(=O)[C@H]([C@@H](C)O)NC1=O [caspofungin acetate, 1-[(4R,5S)-5-[(2-aminoethyl)amino]-N2-(10,12-dimethyl-1-oxotetradecyl)-4-hydroxy-L-ornithine]-5-[(3R)-3-hydroxy-L-ornithine]pneumocandin B0 diacetate (salt)]
2 | poor oral bioavailability | CCC(C)CC(C)CCCCCCCCC(=O)N[C@H]1C[C@@H](O)[C@@H](NCCN)NC(=O)[C@@H]2[C@@H](O)CCN2C(=O)[C@H]([C@H](O)CCN)NC(=O)[C@H]([C@H](O)[C@@H](O)c2ccc(O)cc2)NC(=O)[C@@H]2C[C@@H](O)CN2C(=O)[C@H]([C@@H](C)O)NC1=O (some centres unmarked) [Caspofungin]
